SMILES strings stand for the structures. pIC50: −log10 of the molar value.

Broadly, the pIC50 is the IC50 on a negative log10 scale, so that one unit is a factor of ten.

Assay [1] addresses Human carbonic anhydrase II (hCA-II) (Homo sapiens (Human), UniProt P00918). Description: Human carbonic anhydrase-II inhibition assay (absorbance, 4-NPA substrate). Format: biochemical. The following applies: hCA II 8 nM, 4-NPA 2.5 mM, absorbance 340 nm; read-out: CA-II IC50. The procedure: Human Carbonic Anhydrase-II Inhibition Assay
Then 30 μL of 16 nM hCA II solution was added (8 nM final concentration), mixed five times. 30 μL of 4-NPA substrate solution was added (2.5 mM final concentration), mixed five times.

Another assay concerns the target human ATX (Homo sapiens (Human), UniProt Q13822). Description: Human ATX enzyme inhibition assay (fluorescence quenching, MR121 substrate). It counts as biochemical. The following applies: human His-tagged ATX 30 nM, MR121 substrate 1 μM. The procedure:
Production of Human Full Length ATX, with and without His Tag
Autotaxin (ATX-ENPP2) cloning: cDNA was prepared from commercial human hematopoietic cells total RNA and used as template in overlapping PCR to generate a full length human ENPP2 ORF with or without a 3′-6× His tag. These full length inserts were cloned into the pcDNA3.1V5-His TOPO (Invitrogen) vector. The DNA sequences of several single clones were verified. The DNA from a correct full length clone was used to transfect Hek293 cells for verification of protein expression. The sequence of the encoded ENPP2 conforms to Swissprot entry Q13822, with or without the additional C-terminal 6× His tag.
ATX Fermentation: Recombinant protein was produced by large-scale transient transfection in 20 L controlled stirred tank bioreactors (Sartorius). During cell growth and transfection, temperature, stirrer speed, pH and dissolved oxygen concentration were maintained at 37° C., 120 rpm, 7.1 and 30% DO, respectively. FreeStyle 293-F cells (Invitrogen) were cultivated in suspension in FreeStyle 293 medium (Invitrogen) and transfected at ca. 1-1.5×10E6 cells/mL with above plasmid DNAs using X-tremeGENE Ro-1539 (commercial product, Roche Diagnostics) as complexing agent. Cells were fed a concentrated nutrient solution (J Immunol Methods 194 (1996), 19, 1-199 (page 193)) and induced by sodium butyrate (2 mM) at 72 h post-transfection and harvested at 96 h post-transfection. Expression was analyzed by Western Blot, enzymatic assay and/or analytical IMAC chromatography. After cooling the cell suspension to 4° C. in a flow-through heat exchanger, cell separation and sterile filtration of supernatant was performed by filtration through Zeta Plus 60M02 E16 (Cuno) and Sartopore 2 XLG (Sartorius) filter units. The supernatant was stored at 4° C. prior to purification.
ATX Purification: 20 liter of culture supernatant were conditioned for ultrafiltration by adding Brij 35 to a final concentration of 0.02% and by adjusting the pH to 7.0 using 1 M HCl. Then the supernatant was first microfiltred through a 0.2 µm Ultran-Pilot Open Channel PES filter (Whatman) and afterwards concentrated to 1 liter through an Ultran-Pilot Screen Channel PES filter with 30 kDa MWCO (Whatman). Prior to IMAC chromatography, NiSO4 was added to a final concentration of 1 mM. […] The column was washed stepwise with the same buffer containing 20 mM, 40 mM and 50 mM imidazole, respectively. The protein was subsequently eluted using a linear gradient to 0.5 M imidazole in 15 column volumes. ATX containing fractions were pooled and concentrated using an Amicon cell equipped with a 30 kDa PES filter membrane. […] Final yield of protein after purification was 5-10 mg ATX per liter of culture supernatant. The protein was stored at −80° C.
Human ATX Enzyme Inhibition Assay
Test compounds (10 mM stock in DMSO, 8 μL) were obtained in 384 well sample plates (Corning Costar #3655) and diluted with 8 μL DMSO. […] Then, 15 μL of 41.7 nM ATX solution was added (30 nM final concentration), mixed five times and then incubated for 15 minutes at 30° C. 10 μL of MR121 substrate solution was added (1 μM final concentration), mixed 30 times and then incubated for 15 minutes at 30° C.

With `CO[C@]12CN(C(=O)OCc3ncc(C(F)(F)F)cc3NC(=O)C(C)(C)C)C[C@@H]1CN(C(=O)c1ccc(S(N)(=O)=O)cc1F)C2` (racemic) [Example 1.00, trans-5-(2-Fluoro-4-sulfamoyl-benzoyl)-3a-methoxy-hexahydro-pyrrolo[3,4-c]pyrrole-2-carboxylic acid 3-(2,2-dimethyl-propionylamino)-5-trifluoromethyl-pyridin-2-ylmethyl ester], the negative-log IC50 (pIC50) in assay [1] was 8.30; at human ATX, 8.10.
On to `CO[C@]12CN(C(=O)OCc3ncc(C(F)(F)F)cc3NC(=O)C(C)(C)C)C[C@@H]1CN(C(=O)c1ccc(S(N)(=O)=O)cc1)C2` (racemic) [Example 1.03, trans-5-(4-sulfamoyl-benzoyl)-3a-methoxy-hexahydro-pyrrolo[3,4-c]pyrrole-2-carboxylic acid 3-(2,2-dimethyl-propionylamino)-5-trifluoromethyl-pyridin-2-ylmethyl ester], for which, on human ATX, the pIC50 is 8.22.
For the molecule `NS(=O)(=O)c1ccc(C(=O)N2C[C@H]3CN(C(=O)OCc4ccc(OC(F)(F)F)cc4)C[C@]3(F)C2)cc1` (racemic) [Example 1.04, trans-5-(4-sulfamoyl-benzoyl)-3a-fluoro-hexahydro-pyrrolo[3,4-c]pyrrole-2-carboxylic acid 4-trifluoromethoxy-benzyl ester], on human ATX, the pIC50 is 8.52.
On human ATX, `CO[C@]12CN(C(=O)OCc3ccc(OC(F)(F)F)cc3)C[C@@H]1CN(C(=O)c1ccc(S(N)(=O)=O)cc1)C2` (racemic) [Example 1.05, trans-5-(4-sulfamoyl-benzoyl)-3a-methoxy-hexahydro-pyrrolo[3,4-c]pyrrole-2-carboxylic acid 4-trifluoromethoxy-benzyl ester] had a pIC50 of 7.70.
As to `C[C@]12CN(C(=O)OCc3ccc(OC(F)(F)F)cc3)C[C@@H]1CN(C(=O)c1ccc(S(N)(=O)=O)cc1)C2` (racemic) [Example 1.06, trans-3a-methyl-5-(4-sulfamoyl-benzoyl)-hexahydro-pyrrolo[3,4-c]pyrrole-2-carboxylic acid 4-trifluoromethoxy-benzyl ester], the negative-log IC50 (pIC50) at human ATX is 8.22.
Consider `CO[C@]12CN(C(=O)CCc3ccc(OC(F)(F)F)cc3)C[C@@H]1CN(C(=O)c1ccc(S(N)(=O)=O)cc1F)C2` (relative stereo) [Example 1.01, trans-4-[3a-methoxy-2-[3-[4-(trifluoromethoxy)phenyl]propanoyl]-3,4,6,6a-tetrahydro-1H-pyrrolo[3,4-c]pyrrole-5-carbonyl]-3-fluorobenzenesulfonamide], for which the values for the pIC50 (in assay [1]; against human ATX) were 8.10 and 8.00, respectively.
With `CO[C@@]12CN(C(=O)c3cc(OCC4CCOCC4)nc(C4CC4)c3)C[C@H]1CN(C(=O)c1ccc(S(N)(=O)=O)cc1F)C2` (relative stereo) [Example 1.02, trans-4-[5-[2-cyclopropyl-6-(oxan-4-ylmethoxy)pyridine-4-carbonyl]-3a-methoxy-3,4,6,6a-tetrahydro-1H-pyrrolo[3,4-c]pyrrole-2-carbonyl]-3-fluorobenzenesulfonamide], the pIC50 in assay [1] was 8.00; against human ATX, 8.22.
The corresponding values for `CO[C@]12CN(C(=O)OCc3ncc(C(F)(F)F)cc3NC(=O)C(C)(C)C)C[C@@H]1CN(C(=O)c1ccc(S(N)(=O)=O)cn1)C2` (relative stereo) [Example 1.07, trans-5-(5-sulfamoylpyridine-2-carbonyl)-3a-methoxy-hexahydro-pyrrolo[3,4-c]pyrrole-2-carboxylic acid 3-(2,2-dimethyl-propionylamino)-5-trifluoromethyl-pyridin-2-ylmethyl ester] are 7.89 and 8.22.
The matching figures for `CO[C@]12CN(C(=O)CCc3ccc(OC(F)(F)F)cc3)C[C@@H]1CN(C(=O)c1ccc(S(N)(=O)=O)cn1)C2` (relative stereo) [Example 1.08, trans-6-[3a-methoxy-2-[3-[4-(trifluoromethoxy)phenyl]propanoyl]-3,4,6,6a-tetrahydro-1H-pyrrolo[3,4-c]pyrrole-5-carbonyl]pyridine-3-sulfonamide]: 7.74 and 7.77.

The values are drawn from US10738053B2, “Bicyclic compounds as dual ATX/CA inhibitors” (Hoffmann-La Roche Inc., priority 2015, dated 2020).
